From the supplement of paper PMC13380429
± gives the standard deviation of the averaged measurements.

Tests used:
Details in all cases: 72 h
[1] = test system: Vero E6; test: cell viability relative to DMSO; higher = less toxic
[2] = test system: U2OS; test: as above
[3] = test system: HepG2; test: as above
[4] = test system: Caco-2; test: as above
[5] = test system: Calu-3; test: as above
[6] = test system: Vero E6; test: relative viability EC50 (midpoint between 100% and the lowest measured viability); higher = less toxic
[7] = test system: U2OS; test: as above
[8] = test system: HepG2; test: as above
[9] = test system: Caco-2; test: as above
[10] = test system: Calu-3; test: as above
[11] = test system: Vero E6; test: drug sensitivity score (DSS) for viability; higher = more toxic; extreme values may be limits of the assay
[12] = test system: U2OS; test: as above
[13] = test system: HepG2; test: as above
[14] = test system: Caco-2; test: as above
[15] = test system: Calu-3; test: as above

Structure (SMILES) | cell viability ([1]; 1 nM) | cell viability ([1]; 10 nM) | cell viability ([1]; 100 nM) | cell viability ([1]; 1000 nM) | cell viability ([1]; 10000 nM) | cell viability ([2]; 1 nM) | cell viability ([2]; 10 nM) | cell viability ([2]; 100 nM) | cell viability ([2]; 1000 nM) | cell viability ([2]; 10000 nM) | cell viability ([3]; 1 nM) | cell viability ([3]; 10 nM) | cell viability ([3]; 100 nM) | cell viability ([3]; 1000 nM) | cell viability ([3]; 10000 nM) | cell viability ([4]; 1 nM) | cell viability ([4]; 10 nM) | cell viability ([4]; 100 nM) | cell viability ([4]; 1000 nM) | cell viability ([4]; 10000 nM) | cell viability ([5]; 1 nM) | cell viability ([5]; 10 nM) | cell viability ([5]; 100 nM) | cell viability ([5]; 1000 nM) | cell viability ([5]; 10000 nM) | relative viability EC50 [6] | relative viability EC50 [7] | relative viability EC50 [8] | relative viability EC50 [9] | relative viability EC50 [10] | drug sensitivity score [11] | drug sensitivity score [12] | drug sensitivity score [13] | drug sensitivity score [14] | drug sensitivity score [15]
CCOc1ccccc1C(N)=O [ethenzamide] | 104% | 98.1% | 101% | 92.6% | 97.3% | 106% | 97.9% | 100% | 98.2% | 100% | 101% | 94.9% | 95.4% | 102% | 91.2% | 100% | 97% | 97.6% | 98.9% | 103% | 95.3% | 101% | 99.5% | 98.1% | 103% | > 10 µM | > 10 µM | > 10 µM | > 10 µM | > 10 µM | 0 | 0 | 0 | 0 | 0
Cn1c(COc2ccc(CC3SC(=O)NC3=O)cc2)nc2ccccc2c1=O (stereo not given) [balaglitazone] | 98.2% | 94.8% | 88.6% | 93.4% | 101% | 96.4% | 95% | 97.3% | 91.8% | 92% | 88.5% | 104% | 85.7% | 100% | 99.2% | 91.7% | 106% | 90.7% | 96.4% | 85.3% | 95% | 95% | 103% | 103% | 84.3% | > 10 µM | > 10 µM | > 10 µM | > 10 µM | > 10 µM | 0 | 0 | 0 | 0.1 | 0.2
CC/C(=C(/CC)c1ccc(O)cc1)c1ccc(O)cc1 [diethylstilbestrol] | 95.1% | 99.8% | 91.2% | 98.3% | 107% | 98.6% | 94% | 99.5% | 94.3% | 96.8% | 111% | 98.8% | 103% | 98.8% | 106% | 97.7% | 87.3% | 107% | 106% | 81.5% | 106% | 96.7% | 114% | 103% | 109% | > 10 µM | > 10 µM | > 10 µM | > 10 µM | > 10 µM | 0 | 0 | 0 | 0.3 | 0
CCOc1ccc(-n2c([C@@H](C)N(Cc3cccnc3)C(=O)Cc3ccc(OC(F)(F)F)cc3)nc3ncccc3c2=O)cc1 (racemic) [AMG-487-(+/-)] | 97.8 ± 3.2% | 102 ± 3.9% | 101 ± 2.5% | 97.8 ± 0.57% | 102 ± 2.5% | 100.5 ± 0.35% | 101 ± 4% | 97.3 ± 1.7% | 98.6 ± 0.85% | 99.6 ± 1.7% | 99.7 ± 1.1% | 98 ± 11% | 97.5 ± 8.5% | 95.2 ± 4.5% | 94 ± 13% | 94 ± 2.5% | 98.2 ± 13% | 98.5 ± 2% | 101 ± 6% | 94.5 ± 8.4% | 100.8 ± 0.57% | 99.7 ± 0.99% | 93.3 ± 2.7% | 92.1 ± 3.4% | 98.5 ± 6% | > 10 µM | > 10 µM | > 10 µM | > 10 µM | > 10 µM | 0 | 0 | 0.45 ± 0.64 | 0 | 0.05 ± 0.071
c1ccc(Cn2c(-c3ccc(OC[C@H](C4CCNCC4)n4c(-c5ccccc5)nc5ccccc54)cc3)nc3ccccc32)cc1 [deltarasin] | 92.9% | 99.3% | 94% | 95.4% | -0.1% | 99.9% | 93.9% | 98.7% | 99.9% | -0.3% | 99.7% | 100% | 95% | 110% | -0.3% | 98.6% | 87.8% | 104% | 95.9% | 2.1% | 105% | 102% | 102% | 107% | 0.1% | 2.8 µM | 3.14 µM | 3.62 µM | 2.85 µM | 3.51 µM | 6.2 | 5.6 | 4.9 | 6 | 5.1
C[C@@H](CN)CC(=O)O [3-methyl-GABA] | 100% | 94.2% | 103% | 92.8% | 101% | 102% | 101% | 99.3% | 103% | 94.5% | 96.1% | 90.5% | 100% | 92.4% | 99% | 85.9% | 94.9% | 84.6% | 101% | 88.8% | 95.5% | 104% | 93.4% | 98.3% | 90.9% | > 10 µM | > 10 µM | > 10 µM | > 10 µM | > 10 µM | 0 | 0 | 0 | 0.1 | 0
COCCc1ccc(OCC(O)CNC(C)C)cc1 (stereo not given) [metoprolol] | 97.7% | 97.1% | 96.1% | 93.6% | 96.2% | 103% | 109% | 99% | 108% | 104% | 112% | 79.4% | 122% | 79.7% | 93.6% | 102% | 136% | 91.8% | 110% | 94.4% | 93.1% | 106% | 93.2% | 101% | 98.7% | > 10 µM | > 10 µM | > 10 µM | > 10 µM | > 10 µM | 0 | 0 | 0 | 0 | 0
CCOC1O[C@H]([C@@H](COCc2ccccc2)OCc2ccccc2)[C@H](OCc2ccccc2)[C@H]1O (stereo not given in full) [tribenoside] | 91.6% | 94.8% | 91.6% | 93.7% | 111% | 93.9% | 96.3% | 101% | 97.3% | 98% | 91.4% | 104% | 93.6% | 92.6% | 94.2% | 93% | 96.2% | 90.3% | 95.6% | 94% | 93.5% | 94.6% | 102% | 105% | 106% | > 10 µM | > 10 µM | > 10 µM | > 10 µM | > 10 µM | 0 | 0 | 0 | 0 | 0
O=C1N(c2ccccc2)c2ccccc2C1(Cc1ccncc1)Cc1ccncc1 [linopirdine] | 106% | 97.3% | 106% | 96.9% | 99.2% | 94.6% | 101% | 98.7% | 103% | 98.7% | 111% | 102% | 94.9% | 105% | 102% | 91.4% | 93.2% | 88.3% | 98.8% | 93.1% | 92.4% | 98.5% | 98.9% | 103% | 97.2% | > 10 µM | > 10 µM | > 10 µM | > 10 µM | > 10 µM | 0 | 0 | 0 | 0 | 0
Cn1c(C#N)ccc1-c1ccc2c(c1)C(C)(C)OC(=S)N2 [tanaproget] | 102% | 103% | 98.2% | 105% | 107% | 102% | 103% | 102% | 103% | 94.9% | 106% | 109% | 95.8% | 87% | 24.7% | 98% | 101% | 100% | 94.8% | 75.4% | 105% | 106% | 101% | 108% | 88.9% | > 10 µM | > 10 µM | 1.86 µM | > 10 µM | > 10 µM | 0 | 0 | 6.3 | 1.7 | 0
CCN(c1cc(-c2ccc(CN3CCOCC3)cc2)cc(C(=O)NCc2c(C)cc(C)[nH]c2=O)c1C)C1CCOCC1 [tazemetostat] | 96.2% | 97.7% | 95.2% | 98.9% | 98.9% | 97.7% | 96.9% | 101% | 102% | 93.8% | 86.1% | 97% | 90.3% | 96.9% | 95.3% | 91.9% | 101% | 98.9% | 101% | 92.6% | 91.2% | 103% | 98.3% | 98% | 104% | > 10 µM | > 10 µM | > 10 µM | > 10 µM | > 10 µM | 0 | 0 | 0 | 0 | 0
CN1CCN(CCCCN2C(=O)CN(/N=C/c3ccc(-c4ccc(Cl)cc4)o3)C2=O)CC1 [azimilide] | 101% | 98.7% | 100% | 96.9% | 98.1% | 103% | 97.1% | 99.8% | 98.2% | 98.5% | 99.8% | 106% | 101% | 103% | 85.3% | 97.4% | 102% | 94.4% | 98.7% | 94.5% | 86.7% | 96.6% | 91% | 106% | 92.1% | > 10 µM | > 10 µM | > 10 µM | > 10 µM | > 10 µM | 0 | 0 | 0.1 | 0 | 0
O=c1[nH]c(=O)n([C@H]2CCCO2)cc1F (racemic) [ftorafur] | 96.1% | 103% | 91.2% | 102% | 108% | 99% | 95.9% | 102% | 98.1% | 105% | 87.2% | 111% | 91.5% | 110% | 113% | 93.5% | 103% | 106% | 90.7% | 100% | 96.5% | 95.2% | 93.9% | 94.4% | 99.2% | > 10 µM | > 10 µM | > 10 µM | > 10 µM | > 10 µM | 0 | 0 | 0 | 0 | 0
CN[C@@H](C)CC1CCCCC1 [propylhexedrine] | 99.2% | 110% | 106% | 104% | 95.7% | 104% | 99.6% | 100% | 99.2% | 100% | 102% | 101% | 99.3% | 97.8% | 94.1% | 88% | 111% | 86% | 79.4% | 102% | 97.4% | 104% | 104% | 90.2% | 97.9% | > 10 µM | > 10 µM | > 10 µM | > 10 µM | > 10 µM | 0 | 0 | 0 | 0 | 0
